Assay results as given in US9958434B2, “Fluorescent probe sensing tyrosine kinase and use thereof” (POSTECH ACADEMY-INDUSTRY FOUNDATION, priority 2013, dated 2018).

What was measured:
96 kinase enzymes = experiment: KINOMEscan competition binding (DiscoveRX)
Excerpt: (§1) More particularly, to determine selectivities to various kinds of kinase enzymes, the samples were entrusted to DiscoveRX (U.S.A), which was able to determine the binding affinities to a total of 96 kinase enzymes, to perform KINOMEscan experiments. This company treated all kinds of information on the entrusted samples as confidential, and analyzed the sample with charge. Compound 1 was provided to the company, and the company performed the KINOMEscan experiments, and provided the results (DiscoveRX corp.)
(§2) KINOMEscan is an experiment in which compound 1 and a compound (a material strongly binding to kinase enzymes) competing for compound 1 are treated with a kinase enzyme at the same time to determine how many the competing compound binds to active sites of the kinase enzymes, compared with compound 1. In this experiment, an experimental value is expressed as a percentile value. In this case, a lower percentile value means that compound 1 more strongly bind to the kinase enzymes.

TYK2 = molecular target: T1, TYK2 (Homo sapiens, UniProt P29597); experiment: KINOMEscan competition binding (DiscoveRX); conditions: lower value means stronger binding
T1 construct: purchased DiscoveRX (contract KINOMEscan service)
Excerpt: as §1, §2

ABL1 (T315I) = molecular target: T2, ABL1 (T315I) (Homo sapiens, UniProt P00519, T315I); experiment: KINOMEscan competition binding (DiscoveRX); conditions: lower value means stronger binding
T2 construct: purchased DiscoveRX (contract KINOMEscan service)
Excerpt: as §1, §2

[1] = Absorbance and fluorescence in HEPES buffer; assay type: physicochemical; conditions: 10 mM HEPES buffer, pH 7.5
Description: The present inventors measured absorbance and a change in fluorescence of compound 1 under various solvent conditions.
The present inventors measured the absorbance and fluorescence of compound 1 in a buffer (pH 7.5, 10 mM HEPES). A UV/Vis spectrophotometer commercially available from HP was used to analyze the UV/Vis absorption spectra, and a photon technical international fluorescence system commercially available from PTI was used to analyze the fluorescence spectra. In this case, a cell used when compound 1 was put into each type of equipment was a standard quartz cell having a thickness of 1 cm.
In addition to compound 1, compound 5 was shown as a reference material in FIG. 1. In this case, compound 5 is a reference material obtained by introducing an alkyl group into a —OH group of compound 1 to remove an intramolecular hydrogen bond.
The panels (a) and (b) of the graph show the absorbances and fluorescence intensities of compound 5 and compound 1 under a solvent condition (for example, a 10 mM HEPES buffer, pH 7.5).

[2] = test system: mouse melanoma skin cancer B16F10 tissues; experiment: In vivo two-photon microscopy and OCT imaging of mouse ear transplanted with skin cancer tissues
Description: More particularly, a mouse's ear was transplanted with skin cancer tissues (mouse melanoma skin cancer B16F10), and treated with compound 1 to determine that fluorescence was selectively observed in a site of cancer in living mice under a two-photon microscope. 6-month-old, SPF/VAF immunodeficent female nude mice (BALB/c-nude mice, OrientBio corp.) were used as the mice, and the B16F10 cancer cells were prepared in the same manner as in Example 12. Then, the concentrated cancer cells from which a solution was removed using a centrifuge were injected into one ear of each mouse using a syringe. After 4 day, formation of cancer tissues in the mouse's ear was checked, and 10 μL of compound 1 (10 mM) was injected into the one ear of each mouse. […] After 30 minutes, the mice were anesthetized by […], and images were taken of cancer tissues and normal tissues using a two-photon fluorescence microscope. […]
In FIG. 13, each image has a size of 300 μm×300 μm, and a scale bar represents 50 μm. A right bar represents a fluorescence signal intensity. […] The panels a and d show the two-photon fluorescence imaging results from the mice into which nothing is injected, the panels b and e show the two-photon fluorescence imaging results from the mice into which 10 μL of a PBS buffer including no compound 1 is injected, and the panels c and f show the […]

T1 sequence (P29597 whole entry): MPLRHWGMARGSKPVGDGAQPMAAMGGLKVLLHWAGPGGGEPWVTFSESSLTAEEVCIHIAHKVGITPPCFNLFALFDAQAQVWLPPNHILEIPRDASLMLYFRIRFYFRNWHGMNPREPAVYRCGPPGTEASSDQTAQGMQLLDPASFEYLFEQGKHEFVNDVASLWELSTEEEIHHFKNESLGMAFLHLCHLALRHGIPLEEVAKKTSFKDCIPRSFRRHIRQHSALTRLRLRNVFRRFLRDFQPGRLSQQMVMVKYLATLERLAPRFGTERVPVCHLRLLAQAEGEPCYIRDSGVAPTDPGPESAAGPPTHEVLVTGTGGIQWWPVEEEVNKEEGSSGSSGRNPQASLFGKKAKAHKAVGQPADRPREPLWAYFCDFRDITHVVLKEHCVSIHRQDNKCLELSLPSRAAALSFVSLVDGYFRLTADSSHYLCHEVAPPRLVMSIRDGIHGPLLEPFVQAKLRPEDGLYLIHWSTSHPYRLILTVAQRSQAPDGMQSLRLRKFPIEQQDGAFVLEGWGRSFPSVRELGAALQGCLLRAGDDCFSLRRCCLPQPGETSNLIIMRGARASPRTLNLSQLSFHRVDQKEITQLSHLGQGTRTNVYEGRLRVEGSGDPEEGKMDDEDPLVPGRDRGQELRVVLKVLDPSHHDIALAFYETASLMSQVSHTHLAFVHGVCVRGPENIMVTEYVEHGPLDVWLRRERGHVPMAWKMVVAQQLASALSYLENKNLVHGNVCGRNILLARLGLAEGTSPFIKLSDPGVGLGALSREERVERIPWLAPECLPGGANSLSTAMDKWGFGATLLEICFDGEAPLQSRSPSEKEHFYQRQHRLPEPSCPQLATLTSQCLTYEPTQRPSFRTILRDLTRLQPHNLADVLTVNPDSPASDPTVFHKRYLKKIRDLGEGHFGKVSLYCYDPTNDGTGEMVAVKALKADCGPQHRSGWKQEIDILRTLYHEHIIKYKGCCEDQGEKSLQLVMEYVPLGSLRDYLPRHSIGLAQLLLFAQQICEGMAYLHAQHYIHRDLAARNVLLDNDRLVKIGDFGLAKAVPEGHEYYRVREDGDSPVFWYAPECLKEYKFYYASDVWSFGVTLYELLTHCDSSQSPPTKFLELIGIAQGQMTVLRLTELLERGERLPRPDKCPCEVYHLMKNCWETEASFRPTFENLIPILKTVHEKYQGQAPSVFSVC

In the case of CN(C)c1ccc2cc(C=O)c(O)cc2c1 [compound 1, 6-(dimethylamino)-3-hydroxyl-2-naphthaldehyde], the “number of kinase enzymes bound, of a total of 96” value (96 kinase enzymes) is reported as “at least 50”, the KINOMEscan percentile value (TYK2) is reported as “low percentile value” and the KINOMEscan percentile value (ABL1 (T315I)) is reported as “low percentile value”. For the same molecule, the fluorescence emission [1] was “did not emit fluorescence”, the maximum absorbance [1] was 390 nm and the “two-photon fluorescence in cancer tissues versus normal tissues” value ([2]; nude mice, ear injection of 10 μL of compound 1 (10 mM), imaged after 30 minutes, ex 880 nm) was “strong fluorescence was selectively observed in the cancer tissues”. The “3D imaging (two-photon microscopy combined with OCT) fluorescence” value ([2]; same conditions as Example 14, cancer tissues) was “fluorescence was strongly emitted from the wide tissues”.
